From PMC11249646, “Small-Molecule Disruptors of the Interaction between Calcium- and Integrin-Binding Protein 1 and Integrin αIIbβ3 as Novel Antiplatelet Agents” (ACS Pharmacology & Translational Science, 2024)

The molecules below were run against T1, CIB1 and αIIb interaction (GST-CIB1 : F-αIIb peptide) (Homo sapiens, UniProt Q99828) (assay: FP assay, 384-well format (screen)). Conditions: F-αIIb peptide.
T1 construct: made in house; host or cells: BL-21 plus RIL cells (E. coli)
T1 sequence (Q99828 1-191): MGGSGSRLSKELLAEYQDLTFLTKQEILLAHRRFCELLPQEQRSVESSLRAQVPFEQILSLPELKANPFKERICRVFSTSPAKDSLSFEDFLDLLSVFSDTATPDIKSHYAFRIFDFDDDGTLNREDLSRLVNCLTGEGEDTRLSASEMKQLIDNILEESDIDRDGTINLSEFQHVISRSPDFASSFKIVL
Type: binding
Parameters: 384-well SCREEN Efficacy (%): concentration or dose not given beside the values

| SMILES | 384-well SCREEN Efficacy (%) |
| --- | --- |
| CSC(Cc1ccc(Cl)cc1)C(=O)Nc1ccc(Cl)cc1C(=O)O.O=C(O)C(F)(F)F (stereo not shown) [NCGC00189231-01] | 31% |
| O=C(O)C(F)(F)F.OCc1ccc(-c2ccc3ncnc(NCc4cccs4)c3c2)o1 [NCGC00189276-01] | 72% |
| Cc1cc(=O)oc2cc(SC3=NS(=O)(=O)c4ccccc43)ccc12 [NCGC00189497-01] | 52% |
| O=C(O)C(F)(F)F.O=C(O)c1ccc(-c2ccc3ncnc(NCc4nccs4)c3c2)o1 [NCGC00229620-01] | 40% |

Same assay, conditions: F-αIIb peptide; YES/NO

| SMILES | 384-well SCREEN Confirm? |
| --- | --- |
| CSC(Cc1ccc(Cl)cc1)C(=O)Nc1ccc(Cl)cc1C(=O)O.O=C(O)C(F)(F)F (stereo not shown) [NCGC00189231-01] | YES |
| O=C(O)C(F)(F)F.OCc1ccc(-c2ccc3ncnc(NCc4cccs4)c3c2)o1 [NCGC00189276-01] | YES |
| Cc1cc(=O)oc2cc(SC3=NS(=O)(=O)c4ccccc43)ccc12 [NCGC00189497-01] | YES |
| O=C(O)C(F)(F)F.O=C(O)c1ccc(-c2ccc3ncnc(NCc4nccs4)c3c2)o1 [NCGC00229620-01] | YES |

Same assay, conditions: F-αIIb peptide; read-out: 384-well SCREEN IC50

| SMILES | IC50 |
| --- | --- |
| CSC(Cc1ccc(Cl)cc1)C(=O)Nc1ccc(Cl)cc1C(=O)O.O=C(O)C(F)(F)F (stereo not shown) [NCGC00189231-01] | 120 µM |
| O=C(O)C(F)(F)F.OCc1ccc(-c2ccc3ncnc(NCc4cccs4)c3c2)o1 [NCGC00189276-01] | 12.6 µM |
| Cc1cc(=O)oc2cc(SC3=NS(=O)(=O)c4ccccc43)ccc12 [NCGC00189497-01] | 44.7 µM |
| O=C(O)C(F)(F)F.O=C(O)c1ccc(-c2ccc3ncnc(NCc4nccs4)c3c2)o1 [NCGC00229620-01] | 17.8 µM |

What follows are molecules tested against T2, GST-CIB1 : F-scrambled peptide (Homo sapiens, UniProt Q99828) (assay: FP scrambled-peptide counter screen, 1536-well format). Conditions: scrambled-peptide counterscreen.
T2 construct: made in house; host or cells: BL-21 plus RIL cells (E. coli)
T2 sequence (Q99828 1-191): T1 sequence (Q99828 1-191)
Type: binding

| SMILES | COUNTERSCREEN Efficacy (%) |
| --- | --- |
| CSC(Cc1ccc(Cl)cc1)C(=O)Nc1ccc(Cl)cc1C(=O)O.O=C(O)C(F)(F)F (stereo not shown) [NCGC00189231-01] | 0% |
| O=C(O)C(F)(F)F.OCc1ccc(-c2ccc3ncnc(NCc4cccs4)c3c2)o1 [NCGC00189276-01] | 0% |
| Cc1cc(=O)oc2cc(SC3=NS(=O)(=O)c4ccccc43)ccc12 [NCGC00189497-01] | 115% |
| O=C(O)C(F)(F)F.O=C(O)c1ccc(-c2ccc3ncnc(NCc4nccs4)c3c2)o1 [NCGC00229620-01] | -21% |

Same assay, conditions: scrambled-peptide counterscreen, YES/NO call

| SMILES | COUNTERSCREEN Confirm? |
| --- | --- |
| CSC(Cc1ccc(Cl)cc1)C(=O)Nc1ccc(Cl)cc1C(=O)O.O=C(O)C(F)(F)F (stereo not shown) [NCGC00189231-01] | YES |
| O=C(O)C(F)(F)F.OCc1ccc(-c2ccc3ncnc(NCc4cccs4)c3c2)o1 [NCGC00189276-01] | YES |
| Cc1cc(=O)oc2cc(SC3=NS(=O)(=O)c4ccccc43)ccc12 [NCGC00189497-01] | YES |
| O=C(O)C(F)(F)F.O=C(O)c1ccc(-c2ccc3ncnc(NCc4nccs4)c3c2)o1 [NCGC00229620-01] | YES |

Same assay, conditions: scrambled-peptide counterscreen, qHTS curve class

| SMILES | COUNTERSCREEN Curve Class |
| --- | --- |
| CSC(Cc1ccc(Cl)cc1)C(=O)Nc1ccc(Cl)cc1C(=O)O.O=C(O)C(F)(F)F (stereo not shown) [NCGC00189231-01] | 4 |
| O=C(O)C(F)(F)F.OCc1ccc(-c2ccc3ncnc(NCc4cccs4)c3c2)o1 [NCGC00189276-01] | 4 |
| Cc1cc(=O)oc2cc(SC3=NS(=O)(=O)c4ccccc43)ccc12 [NCGC00189497-01] | 3 |
| O=C(O)C(F)(F)F.O=C(O)c1ccc(-c2ccc3ncnc(NCc4nccs4)c3c2)o1 [NCGC00229620-01] | 4 |

Same assay, conditions: scrambled-peptide counterscreen; read-out: COUNTERSCREEN IC50

| IC50 | SMILES |
| --- | --- |
| 39.8 µM | Cc1cc(=O)oc2cc(SC3=NS(=O)(=O)c4ccccc43)ccc12 [NCGC00189497-01] |

What follows are molecules tested against T3, CIB1 and αIIb interaction (CIB1-GST : F-αIIb peptide) (Homo sapiens, UniProt Q99828) (assay: FP assay, 1536-well qHTS format (primary and confirmatory screen)). Conditions: confirmatory screen, YES/NO call.
T3 construct: made in house; host or cells: BL-21 plus RIL cells (E. coli)
T3 sequence (Q99828 1-191): T1 sequence (Q99828 1-191)
Type: binding

| SMILES | CONFIRMATORY SCREEN Confirm? |
| --- | --- |
| CSC(Cc1ccc(Cl)cc1)C(=O)Nc1ccc(Cl)cc1C(=O)O.O=C(O)C(F)(F)F (stereo not shown) [NCGC00189231-01] | YES |
| O=C(O)C(F)(F)F.OCc1ccc(-c2ccc3ncnc(NCc4cccs4)c3c2)o1 [NCGC00189276-01] | YES |
| Cc1cc(=O)oc2cc(SC3=NS(=O)(=O)c4ccccc43)ccc12 [NCGC00189497-01] | YES |
| O=C(O)C(F)(F)F.O=C(O)c1ccc(-c2ccc3ncnc(NCc4nccs4)c3c2)o1 [NCGC00229620-01] | YES |

Same assay, conditions: confirmatory screen, qHTS curve class; negative sign = inhibitory curve

| SMILES | CONFIRMATORY SCREEN Curve Class |
| --- | --- |
| CSC(Cc1ccc(Cl)cc1)C(=O)Nc1ccc(Cl)cc1C(=O)O.O=C(O)C(F)(F)F (stereo not shown) [NCGC00189231-01] | -2.4 |
| O=C(O)C(F)(F)F.OCc1ccc(-c2ccc3ncnc(NCc4cccs4)c3c2)o1 [NCGC00189276-01] | -1.2 |
| Cc1cc(=O)oc2cc(SC3=NS(=O)(=O)c4ccccc43)ccc12 [NCGC00189497-01] | -1.4 |
| O=C(O)C(F)(F)F.O=C(O)c1ccc(-c2ccc3ncnc(NCc4nccs4)c3c2)o1 [NCGC00229620-01] | -2.4 |

Same assay, conditions: confirmatory screen; negative = inhibition

| SMILES | CONFIRMATORY SCREEN Efficacy (%) |
| --- | --- |
| CSC(Cc1ccc(Cl)cc1)C(=O)Nc1ccc(Cl)cc1C(=O)O.O=C(O)C(F)(F)F (stereo not shown) [NCGC00189231-01] | -50% |
| O=C(O)C(F)(F)F.OCc1ccc(-c2ccc3ncnc(NCc4cccs4)c3c2)o1 [NCGC00189276-01] | -62% |
| Cc1cc(=O)oc2cc(SC3=NS(=O)(=O)c4ccccc43)ccc12 [NCGC00189497-01] | -39% |
| O=C(O)C(F)(F)F.O=C(O)c1ccc(-c2ccc3ncnc(NCc4nccs4)c3c2)o1 [NCGC00229620-01] | -55% |

Same assay, conditions: confirmatory screen; read-out: CONFIRMATORY SCREEN IC50

| SMILES | IC50 |
| --- | --- |
| CSC(Cc1ccc(Cl)cc1)C(=O)Nc1ccc(Cl)cc1C(=O)O.O=C(O)C(F)(F)F (stereo not shown) [NCGC00189231-01] | 44.7 µM |
| Cc1cc(=O)oc2cc(SC3=NS(=O)(=O)c4ccccc43)ccc12 [NCGC00189497-01] | 20 µM |
| O=C(O)C(F)(F)F.O=C(O)c1ccc(-c2ccc3ncnc(NCc4nccs4)c3c2)o1 [NCGC00229620-01] | 44.7 µM |

Same assay, conditions: qHTS FP screen hits, Table S2; negative = inhibition

| SMILES | Efficacy (%) |
| --- | --- |
| Cc1cc(=O)oc2cc(SC3=NS(=O)(=O)c4ccccc43)ccc12 [NCGC00189497-01] | -45% |
| O=C(O)C(F)(F)F.O=C(O)c1ccc(-c2ccc3ncnc(NCc4nccs4)c3c2)o1 [NCGC00229620-01] | -25% |

Same assay, conditions: qHTS FP screen hits, Table S2; one class per curve where COUNT > 1; negative sign = inhibitory curve

| Curve Class | SMILES |
| --- | --- |
| -2.2 | Cc1cc(=O)oc2cc(SC3=NS(=O)(=O)c4ccccc43)ccc12 [NCGC00189497-01] |

Same assay, conditions: qHTS FP screen hits, Table S2; read-out: IC50

| SMILES | IC50 |
| --- | --- |
| Cc1cc(=O)oc2cc(SC3=NS(=O)(=O)c4ccccc43)ccc12 [NCGC00189497-01] | 39.8 µM |
| O=C(O)C(F)(F)F.O=C(O)c1ccc(-c2ccc3ncnc(NCc4nccs4)c3c2)o1 [NCGC00229620-01] | 10 µM |

Same assay, conditions: qHTS primary screen hits, Table S2; negative = inhibition

| SMILES | Efficacy (%) |
| --- | --- |
| CSC(Cc1ccc(Cl)cc1)C(=O)Nc1ccc(Cl)cc1C(=O)O.O=C(O)C(F)(F)F (stereo not shown) [NCGC00189231-01] | -23% |
| O=C(O)C(F)(F)F.OCc1ccc(-c2ccc3ncnc(NCc4cccs4)c3c2)o1 [NCGC00189276-01] | -57% |

Same assay, conditions: qHTS primary screen hits, Table S2; negative sign = inhibitory curve; several classes where COUNT > 1

| SMILES | Curve Class |
| --- | --- |
| CSC(Cc1ccc(Cl)cc1)C(=O)Nc1ccc(Cl)cc1C(=O)O.O=C(O)C(F)(F)F (stereo not shown) [NCGC00189231-01] | -2.4 |
| O=C(O)C(F)(F)F.OCc1ccc(-c2ccc3ncnc(NCc4cccs4)c3c2)o1 [NCGC00189276-01] | -1.2 |

Same assay, conditions: qHTS primary screen hits, Table S2; read-out: IC50

| SMILES | IC50 |
| --- | --- |
| CSC(Cc1ccc(Cl)cc1)C(=O)Nc1ccc(Cl)cc1C(=O)O.O=C(O)C(F)(F)F (stereo not shown) [NCGC00189231-01] | 22.4 µM |
| O=C(O)C(F)(F)F.OCc1ccc(-c2ccc3ncnc(NCc4cccs4)c3c2)o1 [NCGC00189276-01] | 25.1 µM |

What follows are molecules tested against T2, GST-CIB1 : F-scrambled peptide (assay: FP scrambled-peptide counter screen, 384-well format). Conditions: F-scrambled peptide.
Type: binding

| SMILES | 384-well COUNTERSCREEN Efficacy (%) |
| --- | --- |
| CSC(Cc1ccc(Cl)cc1)C(=O)Nc1ccc(Cl)cc1C(=O)O.O=C(O)C(F)(F)F (stereo not shown) [NCGC00189231-01] | 29% |
| O=C(O)C(F)(F)F.OCc1ccc(-c2ccc3ncnc(NCc4cccs4)c3c2)o1 [NCGC00189276-01] | 34% |
| Cc1cc(=O)oc2cc(SC3=NS(=O)(=O)c4ccccc43)ccc12 [NCGC00189497-01] | 34% |
| O=C(O)C(F)(F)F.O=C(O)c1ccc(-c2ccc3ncnc(NCc4nccs4)c3c2)o1 [NCGC00229620-01] | 48% |

Same assay, conditions: F-scrambled peptide; *: Curve in opposite direction

| SMILES | 384-well COUNTERSCREEN Confirm? |
| --- | --- |
| CSC(Cc1ccc(Cl)cc1)C(=O)Nc1ccc(Cl)cc1C(=O)O.O=C(O)C(F)(F)F (stereo not shown) [NCGC00189231-01] | YES |
| O=C(O)C(F)(F)F.OCc1ccc(-c2ccc3ncnc(NCc4cccs4)c3c2)o1 [NCGC00189276-01] | YES |

Same assay, conditions: F-scrambled peptide; read-out: 384-well COUNTERSCREEN IC50

| SMILES | IC50 |
| --- | --- |
| CSC(Cc1ccc(Cl)cc1)C(=O)Nc1ccc(Cl)cc1C(=O)O.O=C(O)C(F)(F)F (stereo not shown) [NCGC00189231-01] | > 120 µM |
| O=C(O)C(F)(F)F.OCc1ccc(-c2ccc3ncnc(NCc4cccs4)c3c2)o1 [NCGC00189276-01] | > 120 µM |
| Cc1cc(=O)oc2cc(SC3=NS(=O)(=O)c4ccccc43)ccc12 [NCGC00189497-01] | 10 µM |
| O=C(O)C(F)(F)F.O=C(O)c1ccc(-c2ccc3ncnc(NCc4nccs4)c3c2)o1 [NCGC00229620-01] | 31.6 µM |
